Measured values from the supplement of paper PMC12076712.

Columns and labels:
Assay in all cases: pIC50, kinobeads binding competition
TYK2 = TYK2 (UniProt P29597)
Procedure, shortened: (§1)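 pIC50 was obtained by fitting fold changes against vehicle to logistic dose-response curves with the R drc package, using biological duplicates. Kinobeads-bound proteins were digested and measured by TMT10 LC-MS/MS. Before this, either living Jurkat cells received nine compound concentrations (top 30 μM, 1:4 steps) for 60 min at 37 °C prior to lysis, or Jurkat lysate or a 1:1:1:1 HEK293/K-562/HepG2/placenta lysate mix received nine concentrations (top 30 μM, 1:5 steps) for 60 min at 4 °C.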

BMX = target: T1, BMX (UniProt P51813); settings: cell material: Lysate mix
T1 sequence (whole entry): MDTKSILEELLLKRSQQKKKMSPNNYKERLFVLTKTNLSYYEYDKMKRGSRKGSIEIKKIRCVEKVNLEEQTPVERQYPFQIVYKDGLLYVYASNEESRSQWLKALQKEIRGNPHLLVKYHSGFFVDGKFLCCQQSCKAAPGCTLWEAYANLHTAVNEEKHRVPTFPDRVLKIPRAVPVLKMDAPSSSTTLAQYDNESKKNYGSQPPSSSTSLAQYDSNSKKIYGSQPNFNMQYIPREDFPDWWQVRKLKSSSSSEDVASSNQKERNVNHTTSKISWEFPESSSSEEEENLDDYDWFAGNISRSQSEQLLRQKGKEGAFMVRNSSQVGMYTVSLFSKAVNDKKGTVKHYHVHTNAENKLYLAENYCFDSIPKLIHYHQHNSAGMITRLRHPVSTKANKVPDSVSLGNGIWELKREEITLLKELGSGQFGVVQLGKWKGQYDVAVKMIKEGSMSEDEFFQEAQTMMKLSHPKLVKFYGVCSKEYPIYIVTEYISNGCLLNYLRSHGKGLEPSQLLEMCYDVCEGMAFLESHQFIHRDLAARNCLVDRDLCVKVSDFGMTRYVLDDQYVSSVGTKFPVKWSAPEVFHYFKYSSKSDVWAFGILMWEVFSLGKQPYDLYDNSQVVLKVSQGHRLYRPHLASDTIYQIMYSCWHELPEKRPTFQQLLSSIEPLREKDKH
Procedure, shortened: as §1

EPHB3 = target: T2, EPHB3 (UniProt P54753); settings: cell material: Lysate mix
T2 sequence (whole entry): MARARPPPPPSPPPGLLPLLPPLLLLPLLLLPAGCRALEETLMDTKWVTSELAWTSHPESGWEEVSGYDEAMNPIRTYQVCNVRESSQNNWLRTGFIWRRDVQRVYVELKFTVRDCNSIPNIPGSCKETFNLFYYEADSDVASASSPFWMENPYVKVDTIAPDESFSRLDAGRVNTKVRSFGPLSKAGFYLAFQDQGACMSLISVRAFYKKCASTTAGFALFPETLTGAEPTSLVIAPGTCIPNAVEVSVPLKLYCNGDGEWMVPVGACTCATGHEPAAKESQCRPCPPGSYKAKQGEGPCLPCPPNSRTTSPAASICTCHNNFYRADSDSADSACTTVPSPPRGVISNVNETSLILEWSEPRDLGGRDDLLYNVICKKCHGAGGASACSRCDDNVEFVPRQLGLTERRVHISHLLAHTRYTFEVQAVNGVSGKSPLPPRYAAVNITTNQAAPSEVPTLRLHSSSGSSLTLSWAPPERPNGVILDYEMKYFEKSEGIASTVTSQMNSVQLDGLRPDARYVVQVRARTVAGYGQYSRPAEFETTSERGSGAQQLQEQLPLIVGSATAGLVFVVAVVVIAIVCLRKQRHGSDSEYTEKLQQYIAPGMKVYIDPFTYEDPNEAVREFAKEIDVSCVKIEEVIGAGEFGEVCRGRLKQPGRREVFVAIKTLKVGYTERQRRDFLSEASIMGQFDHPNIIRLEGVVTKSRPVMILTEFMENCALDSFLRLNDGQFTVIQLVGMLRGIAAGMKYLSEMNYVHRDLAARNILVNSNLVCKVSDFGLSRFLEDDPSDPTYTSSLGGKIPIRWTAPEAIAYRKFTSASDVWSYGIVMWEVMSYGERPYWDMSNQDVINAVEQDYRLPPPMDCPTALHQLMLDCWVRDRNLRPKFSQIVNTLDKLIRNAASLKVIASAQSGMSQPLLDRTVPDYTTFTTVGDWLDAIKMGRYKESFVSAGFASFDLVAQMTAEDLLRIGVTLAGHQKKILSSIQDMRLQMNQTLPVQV
Procedure, shortened: as §1

UniProt Q9UEE5 = target: T3, UniProt Q9UEE5
T3 sequence (whole entry): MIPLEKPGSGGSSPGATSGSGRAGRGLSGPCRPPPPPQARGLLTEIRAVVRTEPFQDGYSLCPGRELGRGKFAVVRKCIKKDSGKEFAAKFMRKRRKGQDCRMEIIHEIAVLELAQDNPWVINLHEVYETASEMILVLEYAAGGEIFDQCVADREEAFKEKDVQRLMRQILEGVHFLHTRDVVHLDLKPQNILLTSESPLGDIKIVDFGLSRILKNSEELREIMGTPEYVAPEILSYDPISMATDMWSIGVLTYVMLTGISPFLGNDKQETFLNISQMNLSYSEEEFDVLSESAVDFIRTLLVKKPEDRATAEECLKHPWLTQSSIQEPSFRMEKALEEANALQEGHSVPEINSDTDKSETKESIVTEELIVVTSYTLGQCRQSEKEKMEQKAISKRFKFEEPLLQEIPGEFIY
Procedure, shortened: as §1

TESK2 = TESK2 (UniProt Q96S53)
Procedure, shortened: as §1

TGFBR2 = TGFBR2 (UniProt P37173)
Procedure, shortened: as §1

TESK2, sequence (Q96S53 whole entry, looked up): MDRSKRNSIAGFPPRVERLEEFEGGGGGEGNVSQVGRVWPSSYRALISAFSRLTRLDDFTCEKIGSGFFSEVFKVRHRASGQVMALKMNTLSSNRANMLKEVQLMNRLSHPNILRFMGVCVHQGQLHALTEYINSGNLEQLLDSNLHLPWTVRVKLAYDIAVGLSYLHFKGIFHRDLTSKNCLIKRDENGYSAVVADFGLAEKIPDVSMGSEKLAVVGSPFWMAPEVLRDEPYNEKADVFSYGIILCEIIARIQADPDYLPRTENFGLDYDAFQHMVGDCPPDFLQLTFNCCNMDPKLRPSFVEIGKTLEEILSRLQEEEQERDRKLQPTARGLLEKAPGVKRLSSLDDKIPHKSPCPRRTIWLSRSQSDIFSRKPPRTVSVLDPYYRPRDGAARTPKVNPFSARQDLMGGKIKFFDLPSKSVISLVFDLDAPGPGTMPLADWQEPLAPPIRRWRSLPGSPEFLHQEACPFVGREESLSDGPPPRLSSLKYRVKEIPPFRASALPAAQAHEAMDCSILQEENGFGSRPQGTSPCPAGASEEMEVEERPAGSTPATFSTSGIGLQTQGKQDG
TGFBR2, sequence (P37173 whole entry): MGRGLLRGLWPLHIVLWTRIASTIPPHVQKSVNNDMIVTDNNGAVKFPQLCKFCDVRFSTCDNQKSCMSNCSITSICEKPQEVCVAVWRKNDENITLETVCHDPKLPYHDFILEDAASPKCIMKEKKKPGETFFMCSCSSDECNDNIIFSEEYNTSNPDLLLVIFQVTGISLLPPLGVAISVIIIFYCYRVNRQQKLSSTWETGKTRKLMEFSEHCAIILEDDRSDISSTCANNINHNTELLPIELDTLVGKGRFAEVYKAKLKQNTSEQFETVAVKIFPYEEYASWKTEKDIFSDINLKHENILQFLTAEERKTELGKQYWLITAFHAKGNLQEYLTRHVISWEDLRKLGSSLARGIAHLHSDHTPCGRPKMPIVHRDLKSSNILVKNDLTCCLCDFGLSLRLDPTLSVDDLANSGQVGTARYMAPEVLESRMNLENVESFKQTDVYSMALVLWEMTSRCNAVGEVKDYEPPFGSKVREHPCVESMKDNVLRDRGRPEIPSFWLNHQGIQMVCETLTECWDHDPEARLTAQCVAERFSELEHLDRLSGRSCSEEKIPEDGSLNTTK
TYK2, sequence (P29597 whole entry): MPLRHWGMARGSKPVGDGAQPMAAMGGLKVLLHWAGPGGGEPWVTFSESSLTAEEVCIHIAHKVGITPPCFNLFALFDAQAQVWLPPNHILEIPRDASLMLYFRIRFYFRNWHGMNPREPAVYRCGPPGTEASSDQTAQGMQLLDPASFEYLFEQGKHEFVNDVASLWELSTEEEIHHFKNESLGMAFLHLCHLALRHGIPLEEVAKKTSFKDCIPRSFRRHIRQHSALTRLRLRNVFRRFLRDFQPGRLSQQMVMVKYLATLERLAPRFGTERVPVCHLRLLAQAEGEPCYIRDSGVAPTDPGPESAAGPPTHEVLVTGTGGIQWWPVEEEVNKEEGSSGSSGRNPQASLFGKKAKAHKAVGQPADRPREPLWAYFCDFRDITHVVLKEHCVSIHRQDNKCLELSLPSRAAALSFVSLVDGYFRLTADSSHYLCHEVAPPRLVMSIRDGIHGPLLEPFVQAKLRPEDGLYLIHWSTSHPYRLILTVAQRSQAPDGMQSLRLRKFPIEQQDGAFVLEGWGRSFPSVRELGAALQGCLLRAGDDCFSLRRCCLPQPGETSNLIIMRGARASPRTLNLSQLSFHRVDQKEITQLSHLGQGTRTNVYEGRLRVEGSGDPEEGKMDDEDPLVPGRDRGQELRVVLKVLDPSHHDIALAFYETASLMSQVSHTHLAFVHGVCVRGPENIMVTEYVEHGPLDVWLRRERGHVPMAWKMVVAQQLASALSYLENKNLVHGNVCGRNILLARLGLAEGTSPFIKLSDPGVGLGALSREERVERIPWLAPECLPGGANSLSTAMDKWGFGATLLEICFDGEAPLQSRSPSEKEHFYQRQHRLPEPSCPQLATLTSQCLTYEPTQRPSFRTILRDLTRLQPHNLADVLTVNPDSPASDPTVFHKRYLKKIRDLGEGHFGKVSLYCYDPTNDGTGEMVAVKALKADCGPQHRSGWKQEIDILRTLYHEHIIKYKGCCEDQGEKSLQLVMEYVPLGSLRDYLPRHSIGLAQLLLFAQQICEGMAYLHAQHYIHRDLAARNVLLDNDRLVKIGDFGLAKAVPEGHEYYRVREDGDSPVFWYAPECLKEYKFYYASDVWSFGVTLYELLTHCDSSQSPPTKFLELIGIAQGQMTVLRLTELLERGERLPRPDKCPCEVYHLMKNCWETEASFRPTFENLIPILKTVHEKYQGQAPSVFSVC

pIC50 (TYK2; cell material: Lysate mix)	pIC50 (BMX)	pIC50 (EPHB3)	pIC50 (UniProt Q9UEE5; cell material: Lysate mix)	pIC50 (TESK2; cell material: Lysate mix)	pIC50 (TGFBR2; cell material: Lysate mix)	Structure (SMILES)	pIC50 (TYK2; cell material: Jurkat cells)	pIC50 (TYK2; cell material: Jurkat lysate)	pIC50 (UniProt Q9UEE5; cell material: Jurkat cells)	pIC50 (UniProt Q9UEE5; cell material: Jurkat lysate)	pIC50 (TESK2; cell material: Jurkat cells)	pIC50 (TESK2; cell material: Jurkat lysate)	pIC50 (TGFBR2; cell material: Jurkat cells)	pIC50 (TGFBR2; cell material: Jurkat lysate)
< 4.52	< 4.52	< 4.52	< 4.52	< 4.52	< 4.52	C#CCNC(=O)c1cc(Nc2cc(C)[nH]n2)nc(N2CCN(Cc3ccc(S(=O)(=O)F)cc3)CC2)n1	–	–	–	–	–	–	–	–
< 4.52	< 4.52	< 4.52	< 4.52	< 4.52	< 4.52	O=C(NCCNC(=O)c1cc(Nc2cc(C3CC3)[nH]n2)nc(N2CCN(Cc3ccc(S(=O)(=O)F)cc3)CC2)n1)OC1CC/C=C/CCC1 (stereo not given)	< 4.52	< 4.52	–	< 4.52	–	< 4.52	< 4.52	< 4.52
< 4.52	< 4.52	< 4.52	< 4.52	< 4.52	< 4.52	CCNC(=O)c1cc(Nc2cc(C3CC3)[nH]n2)nc(N2CCN(Cc3ccc(S(=O)(=O)F)cc3)CC2)n1	–	–	–	–	–	–	–	–
< 4.52	< 4.52	< 4.52	< 4.52	< 4.52	< 4.52	CCNC(=O)c1cc(Nc2cc(C)[nH]n2)nc(N2CCN(Cc3ccc(S(=O)(=O)F)cc3)CC2)n1	–	–	–	–	–	–	–	–
< 4.52	< 4.52	< 4.52	< 4.52	< 4.52	< 4.52	Cc1cc(Nc2cc(C(=O)NCCNC(=O)OC3CC/C=C/CCC3)nc(N3CCN(Cc4ccc(S(=O)(=O)F)cc4)CC3)n2)n[nH]1 (stereo not given)	–	–	–	–	–	–	–	–

Structure (SMILES)	pIC50 (TYK2; cell material: Lysate mix)	pIC50 (BMX)	pIC50 (EPHB3)	pIC50 (UniProt Q9UEE5; cell material: Lysate mix)	pIC50 (TESK2; cell material: Lysate mix)	pIC50 (TGFBR2; cell material: Lysate mix)	pIC50 (TYK2; cell material: Jurkat cells)	pIC50 (TYK2; cell material: Jurkat lysate)	pIC50 (UniProt Q9UEE5; cell material: Jurkat cells)	pIC50 (UniProt Q9UEE5; cell material: Jurkat lysate)	pIC50 (TESK2; cell material: Jurkat cells)	pIC50 (TESK2; cell material: Jurkat lysate)	pIC50 (TGFBR2; cell material: Jurkat cells)	pIC50 (TGFBR2; cell material: Jurkat lysate)
C#CCNC(=O)c1cc(Nc2cc(C3CC3)[nH]n2)nc(N2CCN(Cc3ccc(S(=O)(=O)F)cc3)CC2)n1	< 4.52	< 4.52	< 4.52	< 4.52	< 4.52	< 4.52	< 4.52	< 4.52	5.42	< 4.52	< 4.52	< 4.52	5.5	< 4.52
